The values that follow come from patent US20180228795A1, “COMBINATION THERAPY FOR CANCER” (Eli Lilly and Company, priority 2015, published 2018).

This assay relates to PDX TNBC Model CTG-0437. Description: Antitumor effects in PDX mouse model of TNBC. It counts as in vivo. The settings on record: PDX model CTG-0437; A 10 mg/kg SC BID 3 days on/4 off ×4; B 7.5 mg/kg PO BID×28; versus vehicle. The method in brief: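 Single mice per arm in each PDX were given 7.5 mg/kg oral PI3K/mTOR inhibitor BID×28, 10 mg/kg subcutaneous CHK1 inhibitor BID [3 days on/4 off]×4, or both. Efficacy comes from geometric-mean relative tumor volume (final/baseline) versus vehicle.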

The structures appear in SMILES notation.

Regarding `COc1cccc(OCCCN)c1-c1cc(Nc2cnc(C#N)cn2)n[nH]1.CS(=O)(=O)O` [Compound A, 5-(5-(2-(3-aminopropoxy)-6-methoxyphenyl)-1H-pyrazol-3-ylamino)pyrazine-2-carbonitrile methanesulfonate hydrate], the “% Rsp. (% ΔT/ΔC or % Regression)” value is listed as −87.5%.

Turning to `CO[C@@H](C)Cn1c(=O)n(C)c2cnc3ccc(-c4cncc(C(C)(C)O)c4)cc3c21` [Compound B, 8-[5-(1-hydroxy-1-methylethyl)pyridin-3-yl]-1-[(2S)-2-methoxypropyl]-3-methyl-1,3-dihydro-2H-imidazo[4,5-c]quinolin-2-one], the “% Rsp. (% ΔT/ΔC or % Regression)” value turned out to be 80.3%.
